The values below come from publication PMC11098465, “A comparative analysis of peptide-delivered antisense antibiotics using diverse nucleotide mimics” (RNA, 2024).

One series relates to acpP mRNA. Briefly: RNA-seq of KFF-ASO-treated Salmonella (acpP mRNA depletion). It is filed as cell-based, Salmonella enterica serovar Typhimurium strain SL1344. Further details: key to acpP depletion (RNA-seq): +++: Effect strength is represented by additional (+) signs.; ++: Effect strength is represented by additional (+) signs.; Effect strength is represented by additional (+) signs. The conditions noted are these: 15 min; for acpP depletion (RNA-seq): ASO conjugated to the carrier peptide, 5 µM, summary grade. On the procedure: To assay bacterial responses to the different ASO modalities and to determine target mRNA depletion in cellulo, we performed RNA-seq analysis of Salmonella challenged with 5 µM KFF-ASO conjugates for 15 min. We first evaluated two individual RNA-seq experiments by principal component analysis (PCA) and observed three distinct clusters (Fig. 5). The PCA cluster 1 grouped the water control, RNA-MOE, RNA-OMe, and the PNA-treated conditions. […] Cluster 2 grouped the other negASOs. As we have previously observed for KFF peptide exposure ([Popella et al. 2021], [2022]), these treatments led to the activation of a cationic antimicrobial peptide (CAMP) response, including induction of the PhoP/Q and PmrA/B regulons involved in remodeling LPS, and the CpxR regulon that responds to envelope stress (Fig. 7). […] These treatments also led to the down-regulation of genes responsible for the destruction of superoxide anion radicals (sodB) and those involved in manganese efflux (yebN) (Figs. 6 and 7). Finally, cluster 3 grouped samples of the unconjugated peptides and the PMO treatment. Similarly to cluster 2, these activated a strong CAMP response (Fig. 7).
RNA isolation was performed using previously published protocols ([Popella et al. 2021], [2022]). Bacterial overnight cultures were diluted 1:100 in fresh MHB and grown to OD600 0.5. The cultures were diluted to ∼10^6 cfu/mL in noncation-adjusted MHB. […]
Total RNA was purified from bacterial pellets using the miRNeasy Mini kit (Qiagen) according to protocol #3 described in [Popella et al. (2021]). […] RNA concentration was measured with a NanoDrop spectrophotometer.
For transcriptomic analyses, RNA samples were processed and subjected to RNA-seq at the Core Unit SysMed (University of Würzburg). […] Sequencing of pooled libraries, spiked with 5% PhiX control library, was performed at 10 million reads/sample in single-end mode with 75 nt read length on the NextSeq 500 platform (Illumina) using High output sequencing kits. […]

The next series deals with Salmonella periplasm. Description: MALDI-TOF-based analysis of ASO-peptide conjugate uptake. Further details: key to Uptake inside bacteria (MS): +++: Effect strength is represented by additional (+) signs.; ++: Effect strength is represented by additional (+) signs.; Effect strength is represented by additional (+) signs. The conditions noted are these: 15 min; for Detection in the periplasmic fraction (in words): 10 µM KFF-ASO conjugates, MALDI MS; for Uptake inside bacteria (MS): ASO conjugated to the carrier peptide, 10 µM, MALDI-TOF of periplasm, summary grade. It is filed as cell-based. On the procedure:
Finally, to directly test if the ASO conjugates translocate into Salmonella, we used MALDI mass-spectrometry (MS) to identify ASO fragments in the bacterial periplasm after treatment with 10 µM KFF-ASO conjugates for 15 min (Table 2; Supplemental Figs. S7 and S8). […] This is in line with a study that reported that the KFF peptide is cleaved within the periplasm before translocation into the cytoplasm ([Yavari et al. 2021]). […] Importantly, none of the negASOs were detected in this subcellular fraction (Supplemental Fig. S8), likely explaining the lack of antibacterial effects against Salmonella.
The experiments were performed by modifying previously published protocols ([Yavari et al. 2021]). From an overnight culture of Salmonella, a second culture was inoculated (1:100) and grown to OD600 of 0.5 (corresponding to ∼2 × 10^8 cfu/mL). These bacterial cells were washed twice in MHB and resuspended in 95 µL of MHB with an additional incubation at 37°C for 5–10 min. Sterile ASO-peptide conjugates were prepared at concentrations of 200 µM. Five microliters of the 200 µM working solutions were added to 95 µL of bacteria in culture media, leading to a final concentration of the compounds of 10 µM. Five microliters of H2O was added as a negative control. The tubes were incubated at 37°C for 15 min with shaking at 300 rpm. Subsequently, they were centrifuged at 8000g for 5 min at 4°C. The supernatant was aspirated, and the pellet was washed with 0.01 M Tris-HCl before being resuspended in 200 µL of 0.01M Tris-HCl containing 0.5 M Sucrose, 150 µg/mL lysozyme, 10 mM EDTA and incubated at 37°C overnight. These tubes were then centrifuged at 2000g at 4°C for 10 min. The supernatant obtained represents the periplasm. The periplasm fragment was then mixed with 2,6-Dihydroxyacetophenone (DHAP) in ACN 1:1, spotted on a MALDI plate, and analyzed for MALDI-TOF-MS in a Bruker DaltonicsUltrafleXtreme Instrument. The experiment was performed two times, and data of one representative experiment are shown.

Turning to “PMO: phosphorodiamidate morpholino 10mer ASO, sequence CTCATACTCT, targeting acpP −5 to +5 (all phosphorodiamidate morpholino (PMO))”, the “acpP depletion (RNA-seq)” value with acpP mRNA is on record as “+”. Also, in the series on Salmonella periplasm, the “Detection in the periplasmic fraction (in words)” value was “detected in the periplasmic fraction” and the “Uptake inside bacteria (MS)” value was “+”. Also, the Fragments detected entry in the series on Salmonella periplasm (periplasm, 10 µM KFF-ASO conjugate, MALDI-TOF-MS) is “only the PMO fragment was observed in the periplasm”.

As to “PNA: peptide nucleic acid 10mer ASO, sequence CTCATACTCT, targeting acpP −5 to +5 (all peptide nucleic acid (PNA))”, the “acpP mRNA levels after treatment (in words)” value in the series on acpP mRNA (5 µM KFF-ASO conjugates, RNA-seq) is on record as “reduces the levels of acpP mRNA”. For the same substance, in the series with acpP mRNA, the “acpP depletion (RNA-seq)” value is on record as “++”. Besides, in the series on Salmonella periplasm, the “Detection in the periplasmic fraction (in words)” value is listed as “detected in the periplasmic fraction” and the “Uptake inside bacteria (MS)” value is given as “+”.
